Measurements as given in publication PMC6694038, “Pharmacogenomic–pharmacokinetic study of selective estrogen-receptor modulators with intra-patient dose escalation in breast cancer” (Breast Cancer (Tokyo, Japan), 2019).

What was measured:
[1] = weighting of plasma concentration; cited from earlier work
[2] = Plasma concentrations of TAM, TOR and their metabolites by LC–MS/MS (screening study)
[3] = Hot flush grade (CTCAE v3.0) in the screening study; assay type: in vivo, breast cancer patients
Excerpt: We obtained data on compliance and the grade of hot flush as defined by the Common Terminology Criteria for Adverse Events v3.0.

[4] = patients on TAM 20 mg a day, N=182
[5] = 14 patients of the dose-escalation study

Compound | Plasma concentration, max ([2]; patients on TOR 40 mg, N=61) | Plasma concentration, mean ([2]; patients on TOR 40 mg, N=61) | Plasma concentration, median ([2]; patients on TOR 40 mg, N=61) | Plasma concentration, min ([2]; patients on TOR 40 mg, N=61) | Plasma concentration, max ([2]; patients on TOR 120 mg, N=27) | Plasma concentration, mean ([2]; patients on TOR 120 mg, N=27) | Plasma concentration, median ([2]; patients on TOR 120 mg, N=27) | Plasma concentration, min ([2]; patients on TOR 120 mg, N=27) | Plasma concentration, max [2, 4] | Plasma concentration, mean [2, 4] | Plasma concentration, median [2, 4] | Plasma concentration, min [2, 4] | In vitro activity factor in the total activity of TOR (TOR = 1.0) [1] | In vitro activity factor in the total activity of TAM (TAM = 1.0) [1] | other results
CNCCOc1ccc(/C(=C(/CCCl)c2ccccc2)c2ccc(O)cc2)cc1 [4OH-NDM-TOR] | 68.8 ng/mL | 15.4 ng/mL | 13.4 ng/mL | 4.5 ng/mL | 52.9 ng/mL | 32.6 ng/mL | 34.3 ng/mL | 11.5 ng/mL |  |  |  |  | 91.9 |  | 
CC/C(=C(\c1ccc(O)cc1)c1ccc(OCCN(C)C)cc1)c1ccccc1 [4OH-TAM] |  |  |  |  |  |  |  |  | 9.5 ng/mL | 3.6 ng/mL | 3.3 ng/mL | 0.2 ng/mL |  | 116 | 

Now from value to compound, other results behind:

Plasma concentration, max ([2]; patients on TOR 40 mg, N=61) | Plasma concentration, mean ([2]; patients on TOR 40 mg, N=61) | Plasma concentration, median ([2]; patients on TOR 40 mg, N=61) | Plasma concentration, min ([2]; patients on TOR 40 mg, N=61) | Plasma concentration, max ([2]; patients on TOR 120 mg, N=27) | Plasma concentration, mean ([2]; patients on TOR 120 mg, N=27) | Plasma concentration, median ([2]; patients on TOR 120 mg, N=27) | Plasma concentration, min ([2]; patients on TOR 120 mg, N=27) | Plasma concentration, max [2, 4] | Plasma concentration, mean [2, 4] | Plasma concentration, median [2, 4] | Plasma concentration, min [2, 4] | Compound | In vitro activity factor in the total activity of TOR (TOR = 1.0) [1] | In vitro activity factor in the total activity of TAM (TAM = 1.0) [1] | other results
16.4 ng/mL | 8.1 ng/mL | 6.9 ng/mL | 2.4 ng/mL | 31.2 ng/mL | 16.0 ng/mL | 14.6 ng/mL | 5.5 ng/mL |  |  |  |  | CN(C)CCOc1ccc(/C(=C(/CCCl)c2ccccc2)c2ccc(O)cc2)cc1 [4OH-TOR] | 98.0 |  | 
 |  |  |  |  |  |  |  | 1090.0 ng/mL | 283.2 ng/mL | 271.0 ng/mL | 59.2 ng/mL | CC/C(=C(\c1ccccc1)c1ccc(OCCNC)cc1)c1ccccc1 [NDM-TAM] |  | 0.655 | 
2820.0 ng/mL | 1373.7 ng/mL | 1350.0 ng/mL | 601.0 ng/mL | 5430.0 ng/mL | 3594.4 ng/mL | 3500.0 ng/mL | 1380.0 ng/mL |  |  |  |  | CNCCOc1ccc(/C(=C(/CCCl)c2ccccc2)c2ccccc2)cc1 [NDM-TOR] | 0.764 |  | 
 |  |  |  |  |  |  |  | 552.0 ng/mL | 174.7 ng/mL | 163.0 ng/mL | 38.5 ng/mL | CC/C(=C(\c1ccccc1)c1ccc(OCCN(C)C)cc1)c1ccccc1 [TAM, tamoxifen] |  | 1.0 | Hot flush grade 0 on TAM 20 mg, % of patients [3, 5]: 57.1%; Hot flush grade 0 on TAM 20 mg, patients [3, 5]: 8; Hot flush grade 1 on TAM 20 mg, % of patients [3, 5]: 28.6%; Hot flush grade 1 on TAM 20 mg, patients [3, 5]: 4; Hot flush grade 2 on TAM 20 mg, % of patients [3, 5]: 14.3%; Hot flush grade 2 on TAM 20 mg, patients [3, 5]: 2; Hot flush grade 0, % of patients ([3]; TAM 20 mg, screening study): 56.8%; Hot flush grade 1, % of patients ([3]; TAM 20 mg, screening study): 31.4%; Hot flush grade 1, patients ([3]; TAM 20 mg, screening study): 58; Hot flush grade 2, % of patients ([3]; TAM 20 mg, screening study): 11.4%; Hot flush grade 2, patients ([3]; TAM 20 mg, screening study): 21; Hot flush grade 3, % of patients ([3]; TAM 20 mg, screening study): 0.5%; Hot flush grade 3, patients ([3]; TAM 20 mg, screening study): 1
